Test results as given in paper PMC10141580, “Cyclic Dichalcogenides Extend the Reach of Bioreductive Prodrugs to Harness Thiol/Disulfide Oxidoreductases: Applications to seco-Duocarmycins Targeting the Thioredoxin System” (ACS Central Science, 2023).
Several values for one entry are separate records, joined by “and”; a condition that tells them apart may be missing. Equal entries are not always repeated. Where two headings read alike, the source gives them in different places.

System: panel of 140 standard cancer cell lines
Test: ProliFiler-140 cancer cell line screen (CellTiterGlo, 72 h)
Assay type: cell-based
Experimental: Incubations were performed for 72 h before automated viability readout with CellTiterGlo (Figure 8).
End of Figure S11 (part 5 of 5): ProliFiler-140 cancer cell line screening for cytotoxicity of the prodrugs.
8-data-point dose response curves from CellTiter-Glo® viability readout.
ProliFiler-140 cell line panel part V

COc1cc2cc(C(=O)N3C[C@@H](CCl)c4c3cc(OC(=O)N3CCN(C(=O)CCC(=O)N5CCN(C)CC5)[C@H]5CSSC[C@H]53)c3ccccc43)[nH]c2c(OC)c1OC [P-SS66C-CBI-TMI]
Reductive Activation Index (KG-1 a (Blood)): 5.16 | Reductive Activation Index (Kato III (Stomach)): 7.4 | Reductive Activation Index (LN229 (Brain)): 5.44 | IC50 (LOU-NH91, read-out: IC50 [M] (ProliFiler-140), LOU-NH91 (Lung)): 3.5e-08 M | Reductive Activation Index (LnCap (Prostate)): 33 | Reductive Activation Index (M07e (Blood)): 4.26 | IC50 (M-07e, read-out: IC50 [M] (ProliFiler-140), M07e (Blood)): 3.25e-08 M | Reductive Activation Index (MCAS (Ovary)): 5.9 and 5.91 | Reductive Activation Index (MDA MB 231 (Breast)): 5.44 | Reductive Activation Index (MDA MB 435 (Skin)): 8.6 | IC50 (MDA MB 435 (Skin); read-out: IC50 [M] (ProliFiler-140)): 1.26e-07 M | Reductive Activation Index (MKN-1 (Stomach)): 11.1 | Reductive Activation Index (MKN-45 (Stomach)): 5.93 | Reductive Activation Index (Mia PaCA 2 (Pancreas)): 4.38 | Reductive Activation Index (NALM-6 (Blood)): 22.62 and 23 | Reductive Activation Index (NCI-H82 (Lung)): 8.5 | Reductive Activation Index (NCI-H441 (Lung)): 5.81 | Reductive Activation Index (NCI-H838 (Lung)): 10 | Reductive Activation Index (NCI-H1563 (Lung)): 15 | Reductive Activation Index (NCI-H1573 (Lung)): 12 | Reductive Activation Index (NCI-H1703 (Lung)): 16 | Reductive Activation Index (NCI-H1838 (Lung)): 11 | IC50 (NCI-H2110, read-out: IC50 [M] (ProliFiler-140), NCI-H2110 (Lung)): 1.8e-08 M | Reductive Activation Index (NCI-N87 (Stomach)): 15 | Reductive Activation Index (OCI-AML5 (Blood)): 5.7 and 5.67 | Reductive Activation Index (OCI-LY19 (Blood)): 5.41 | Reductive Activation Index (OPM-2 (Blood)): 25.37 | Reductive Activation Index (OV56 (Ovary)): 2.79 | IC50 (OV56, read-out: IC50 [M] (ProliFiler-140), OV56 (Ovary)): 7.25e-08 M | Reductive Activation Index (OVCAR-3 (Ovary)): 13 | Reductive Activation Index (OVK18 (Ovary)): 4.38 | IC50 (OVK18, read-out: IC50 [M] (ProliFiler-140), OVK18 (Ovary)): 4.57e-08 M | Reductive Activation Index (PANC-1 (Pancreas)): 6.9 | Reductive Activation Index (RERF-LC-Ad2 (Lung)): 5.5 and 5.54 | IC50 (RERF-LC-Ad2, read-out: IC50 [M] (ProliFiler-140), RERF-LC-Ad2 (Lung)): 1.4e-07 M | Reductive Activation Index (RL95-2 (Endometrium)): 5.93 | Reductive Activation Index (SCLC-21H (Lung)): 6.16 | Reductive Activation Index (SJSA-1 (Bone)): 3.87 | Reductive Activation Index (SK-MEL-3 (Skin)): 6.6 | Reductive Activation Index (SK-N-FI (Brain)): 4.91 | Reductive Activation Index (SK-N-SH (Brain)): 6.5 | Reductive Activation Index (SNU840 (Ovary)): 1.11 | Reductive Activation Index (SNU-216 (Stomach)): 19.98 and 20 | IC50 (SNU-216, read-out: IC50 [M] (ProliFiler-140), SNU-216 (Stomach)): 9.22e-08 M | IC50 (SNU-840, read-out: IC50 [M] (ProliFiler-140), SNU840 (Ovary)): 6.29e-08 M | Reductive Activation Index (SU-DHL-5 (Blood)): 19 and 19.50 | Reductive Activation Index (SW480 (Colon)): 6.01 | Reductive Activation Index (SW620 (Colon)): 4.55 | Reductive Activation Index (SW948 (Colon)): 4.75 | Reductive Activation Index (Saos-2 EC (Bone)): 3.52 | Reductive Activation Index (SiHa (Ovary)): 5.41 | Reductive Activation Index (T84 (Colon)): 5.69 and 5.7 | Reductive Activation Index (T-47D (Breast)): 11 | Reductive Activation Index (U2OS (Bone)): 4.10 | Reductive Activation Index (U87MG (Brain)): 8.0 | Reductive Activation Index (U118MG (Brain)): 2.11 | Reductive Activation Index (U251MG (Brain)): 17 | Reductive Activation Index (U-937 (Blood)): 6.40 | Reductive Activation Index (ZR-75-1 (Breast)): 4.62 and 4.6 | IC50 (read-out: IC50 [M] (ProliFiler-140), BEN (Lung)): 5.3e-08 M | IC50 (read-out: IC50 [M] (ProliFiler-140), H4 (Brain)): 1.39e-08 M | IC50 (read-out: IC50 [M] (ProliFiler-140), Hep3B2.1-7 (Liver)): 1.7e-07 M | IC50 (read-out: IC50 [M] (ProliFiler-140), J82 (Bladder)): 9.55e-08 M | IC50 (read-out: IC50 [M] (ProliFiler-140), KG-1 (Blood)): 1.92e-07 M | IC50 (read-out: IC50 [M] (ProliFiler-140), LP-1 (Blood)): 1e-07 M | IC50 (read-out: IC50 [M] (ProliFiler-140), MCAS (Ovary)): 1.4e-07 M | IC50 (read-out: IC50 [M] (ProliFiler-140), PC3 (Prostate)): 4.01e-08 M | IC50 (read-out: IC50 [M] (ProliFiler-140), PC-9 (Lung)): 1.4e-08 M | IC50 (read-out: IC50 [M] (ProliFiler-140), RERF-LC-MS (Lung)): 3.07e-08 M | IC50 (read-out: IC50 [M] (ProliFiler-140), RKO (Colon)): 2.13e-08 M | IC50 (read-out: IC50 [M] (ProliFiler-140), SCH (Stomach)): 1.5e-08 M | IC50 (read-out: IC50 [M] (ProliFiler-140), T84 (Colon)): 1.6e-07 M | IC50 (read-out: IC50 [M] (ProliFiler-140); 786-O (Kidney)): 2.9e-08 M | IC50 (read-out: IC50 [M] (ProliFiler-140); A375 (Skin)): 5.5e-08 M | IC50 (read-out: IC50 [M] (ProliFiler-140); A427 (Lung)): 4.42e-08 M | IC50 (read-out: IC50 [M] (ProliFiler-140); A431 (Skin)): 2e-08 M | IC50 (read-out: IC50 [M] (ProliFiler-140); A498 (Kidney)): 9.4e-08 M | IC50 (read-out: IC50 [M] (ProliFiler-140); A549 (Lung)): 3.03e-08 M | IC50 (read-out: IC50 [M] (ProliFiler-140); A2058 (Skin)): 1.09e-08 M | IC50 (read-out: IC50 [M] (ProliFiler-140); A2780 (Ovary)): 8.13e-09 M | IC50 (read-out: IC50 [M] (ProliFiler-140); AsPC-1 (Pancreas)): 2.62e-07 M | IC50 (read-out: IC50 [M] (ProliFiler-140); BEN (Lung)): 5.35e-08 M | IC50 (read-out: IC50 [M] (ProliFiler-140); BT-20 (Breast)): 1.22e-07 M
